# Assay results reported in patent US8278327B2, “PDE10 inhibitors and related compositions and methods” (Omeros Corporation, priority 2006, dated 2012).
# pIC50: −log10 of the molar value.
# Columns and labels:
# [1] = target: T1, recombinant human PDE 10A1 (Homo sapiens, UniProt Q9Y233); assay: PDE10 biochemical assay (modified two-step method of Thompson and Appleman, or SPA with [3H]-cGMP); conditions: PDE10 inhibition
# T1 construct: made in house; host or cells: Sf9 insect cells, baculovirus
# Experimental: Compounds of this invention may be assayed to determine their IC50 values by a modification of the two-step method of Thompson and Appleman (Biochemistry 10; 311-316; 1971). In short, cAMP is spiked with (^3H)cAMP and incubated with PDE10 and various concentrations of a compound of structure (I). After the appropriate incubation time, the reaction is terminated by heating. The mixture is then subjected to treatment with snake venom phosphatase. The phosphatase hydrolyzes any AMP in the mixture, but leaves unreacted cAMP intact. Thus, by separating cAMP from the mixture and determining its concentration (by radiography), the percent of inhibition can be determined. IO50 values can be calculated by performing the experiment at several concentrations using standard graphical means. A detailed description of the actual technique used for IC50 assays are shown in Example 8.
# The phosphodiesterase (PDE) assay was performed using recombinant human PDE 1A3, 2A3, 3 catalytic region, 4 catalytic region, 5 catalytic region, 7A, 8A, 9A2, 10A1 and 11A1 enzymes expressed in a baculoviral system using Sf9 cells. PDE activity was measured using a modification of the two-step method of Thompson and Appleman described above which was adapted for 96 well plate format. […] The final assay volume was 110 μl with assay buffer (10 mM MgCl2; 40 mM Tris.HCl; pH 7.4). Reactions were initiated with enzyme and incubated with (^3H)—substrate and substance for 20 minutes at 30° C. The reaction was terminated by denaturing the enzyme (heating the reaction to 70° C. for 2 minutes). […] The soluble fraction (50 μl) was then added to microscint-20 (200 μl) and counted on a Top Count Plate reader. Radioactivity units were plotted against inhibitor concentration and IC50 values obtained using Graph Pad Prism software.
# Alternatively, phosphodiesterase activity was measured by scintillation proximity assay (SPA) with [^3H]-cGMP as substrate. […] Inhibition was evaluated at 8 concentrations in duplicate. […] The mixture was shaken, allowed to settle for 3 hours, and counted in a Wallac plate counter. […]
# C57BL/6 male mice [2] = assay: PCP-induced hyperactivity; type: in vivo; conditions: PCP 5 mg/kg, p<0.001
# Experimental: Psychostimulant-induced hyperactivity is measured by injecting animals with PCP or amphetamine and monitoring the animals' activity levels in the VersaMax chambers (Accuscan Instruments, Columbus, Ohio) measuring 40×40 cm. Locomotor activity is detected by photobeam breaks as the animal crosses each beam. The animal is placed in the center of the field and left undisturbed for a period of time (20 min to 2 hr) to measure its spontaneous activity in a novel environment. Measurements used to assess locomotor activity include: horizontal activity, total distance traveled, vertical activity (rearing events—animal raises up on hindlimbs), rotation, stereotypy, and distance traveled in the center compared to total distance traveled (center:total distance ratio). Psychostimulants, including dopamine agonist amphetamine and NMDA antagonist PCP, induce psychosis-like conditions manifested as hyperactivity and increased stereotypic behavior. Known antipsychotics are able to reverse psychostimulant-induced hyperactivity and increased stereotypy.
# C57BL/6 male mice [3] = assay: Amphetamine-induced hyperactivity; type: in vivo; conditions: 50 mg/kg i.p., amphetamine 5 mg/kg, vs vehicle+amph control, p<0.01
# C57BL/6 male mice [4] = assay: Conditioned avoidance response (CAR); type: in vivo
# Text: Conditioned avoidance response (CAR) is a behavioral test to evaluate antipsychotic effect of a test compound. It utilizes a shuttle box (Med Associates, St. Albans, Vt.) with two equal chambers separated by a retractable door. Each chamber is fitted with metal grid floor that is capable of delivering electric shocks independently. A computer program is used to implement the testing paradigm as well as record the animal's movement between the two chambers through infrared beam sensors. The testing paradigm is as the follows. A mouse is placed into one chamber. A light (conditioned stimulus, CS) comes on. Five seconds later, mild electric shocks (0.4 mA) (unconditioned stimulus, US) are delivered to the chamber where the mouse is located (as detected by infrared beams) until the mouse escapes to the adjacent chamber or until 10 sec has elapsed. The US and CS always co-terminate. With randomized inter-trial intervals averaging 15 sec, 30 such CS-US pairing trials are given to each mouse each day. For each trial, an escape response is registered if the mouse crosses to the other chamber after being shocked (i.e., during the 10-sec US period), and an avoidance response is registered if the mouse crosses to the other chamber during the first 5-sec CS only period. The animals are trained in such paradigm for 15-20 days, during which the average percentage of avoidance responses will improve to 60-80%. […] These trained animals are then used for compound testing using the same paradigm.
# C57BL/6 male mice were trained in the CAR paradigm to predict and avoid the noxious stimulus, reaching a plateau of approximately 20-25 avoidance responses per 30 trials (“training plateau”) each day. The mice were then injected with compound or vehicle via i.p., and 20 minutes later they were tested for 30 trials in the CAR paradigm. Vehicle treatment and compound treatment were given to the same animals on alternating days, and the effect of compound in reducing avoidance response was analyzed through within-subject comparison (paired t-test).
# C57BL/6 male mice [5] = conditions: 50 mg/kg i.p., 30 min after injection, vs vehicle control
# C57BL/6 male mice [6] = assay: Novel object recognition test (PCP-disrupted); type: in vivo; conditions: 10 mg/kg i.p. with PCP 5 mg/kg, tested 24 h later, p<0.01 vs PCP-treated group
# Experimental: The antipsychotic effect of a test compound may also be evaluated by a novel object recognition test. In a novel object recognition test, mice are housed singly for 1-2 days and then injected with vehicle, PCP, or PCP plus the test compound. Twenty minutes after injection, the mice are presented with and allowed to explore two identical objects for 30 minutes. At the end of the exploration period the objects are removed. Twenty-four hours later each mouse is presented with a pair of objects, one familiar and one novel. After a variable delay, the mice begin to explore the objects. The time exploring each object is measured for 4 minutes starting from the first approach to either object. The fraction of total exploration time spent studying the novel object is recorded as a measure of novelty recognition.
# At the end of the exploration period, the objects were removed. Twenty-four hours later, each mouse was presented with a pair of objects, one familiar and one novel, and the time exploring each object was measured for 4 minutes starting from the first approach to either object.
# PDE10 = conditions: Soderling and Beavo 2000, read-out: IC50 (50% inhibitory concentration); cited from earlier work
# [7] = 50 mg/kg i.p., vs vehicle+PCP control
# [8] = 0.2 mg/kg i.p., vs vehicle+PCP control
# T1 sequence (Q9Y233 1-779 isoform Q9Y233-1): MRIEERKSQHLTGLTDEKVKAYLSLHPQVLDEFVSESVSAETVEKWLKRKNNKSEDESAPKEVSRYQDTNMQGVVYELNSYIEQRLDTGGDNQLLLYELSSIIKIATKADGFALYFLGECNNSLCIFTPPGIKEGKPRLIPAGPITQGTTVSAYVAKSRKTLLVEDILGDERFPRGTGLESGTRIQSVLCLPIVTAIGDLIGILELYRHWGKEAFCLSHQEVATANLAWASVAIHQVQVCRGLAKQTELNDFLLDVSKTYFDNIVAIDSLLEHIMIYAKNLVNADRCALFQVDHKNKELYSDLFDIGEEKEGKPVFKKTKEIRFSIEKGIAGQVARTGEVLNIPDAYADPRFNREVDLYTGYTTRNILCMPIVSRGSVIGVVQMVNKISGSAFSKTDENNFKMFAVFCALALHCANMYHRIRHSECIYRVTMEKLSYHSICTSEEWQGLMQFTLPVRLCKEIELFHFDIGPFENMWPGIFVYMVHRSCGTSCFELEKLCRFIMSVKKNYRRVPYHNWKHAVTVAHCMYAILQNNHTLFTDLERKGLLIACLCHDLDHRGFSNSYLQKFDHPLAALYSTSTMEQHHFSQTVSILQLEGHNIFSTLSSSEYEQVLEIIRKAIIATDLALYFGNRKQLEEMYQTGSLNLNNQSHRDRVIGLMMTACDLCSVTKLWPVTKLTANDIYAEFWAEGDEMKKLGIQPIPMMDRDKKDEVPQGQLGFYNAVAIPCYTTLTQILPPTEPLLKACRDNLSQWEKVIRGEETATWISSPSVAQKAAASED
structure (smiles),measurement,setting,value
"COc1cc(/C=N/NC(=O)CC2Sc3ccccc3NC2=O)cc(OC)c1OC (stereo not drawn) [Compound 1-1, (E)-2-(3-oxo-3,4-dihydro-2H-benzo[B][1,4]thiazin-2-yl)-N′-(3,4,5-trimethoxybenzylidene)acetohydrazide]",pIC50,[1],≥ 6.00
"CCOc1ccc(/C=N/NC(=O)CSc2nc3ccccc3n2Cc2ccccc2)cc1OC [Compound 4-1, (E)-2-(1-benzyl-1H-benzo[d]imidazol-2-ylthio)-N′-(4-ethoxy-3-methoxybenzylidene)acetohydrazide]",pIC50,[1],≥ 6.00
"COc1ccc(/C=N/NC(=O)CSc2cc(C)nc3ccccc23)cc1OC [Compound 5-1, (E)-N′-(3,4-dimethoxybenzylidene)-2-(2-methylquinolin-4-ylthio)acetohydrazide]",pIC50,[1],≥ 6.00
same,hyperactivity induced by PCP,C57BL/6 male mice [2]; [7],completely abolishes
same,stereotypy induced by PCP,C57BL/6 male mice [2]; [7],completely abolishes
same,hyperactivity induced by amphetamine,C57BL/6 male mice [3],partially but significantly reduce
same,stereotypy induced by amphetamine,C57BL/6 male mice [3],partially but significantly reduce
same,number of avoidance response,"C57BL/6 male mice [4]; 30 mg/kg i.p., tested 20 min later, 30 trials, p<0.001",significantly reduces
same,startle response,C57BL/6 male mice [5],does not affect
same,PPI at 3 different prepulse levels,"C57BL/6 male mice [5]; p<0.05, p<0.01",significantly increases
COc1cc(/C=N/NC(=O)CSc2cc(C)nc3ccccc23)cc(OC)c1O [Compound 5-110],hyperactivity induced by PCP,C57BL/6 male mice [2]; 30 mg/kg,significantly reduces
same,stereotypy induced by PCP,C57BL/6 male mice [2]; 30 mg/kg,significantly reduces
same,number of avoidance response,"C57BL/6 male mice [4]; 10 mg/kg, procedure as in Example 12, p<0.01",significantly reduces
COc1ccc2nc(C)cc(SCC(=O)NN=Cc3cc(OC)c(OC)c(OC)c3)c2c1 [Compound 5-184],novel object recognition performance,C57BL/6 male mice [6],able to restore
CC(C)Cn1c(=O)n(C)c(=O)c2[nH]cnc21 [IBMX],pIC50,PDE10,5.59
"O=C(CCCN1CCC(O)(c2ccc(Cl)cc2)CC1)c1ccc(F)cc1 [haloperidol, reference compound]",hyperactivity induced by PCP,C57BL/6 male mice [2]; [8],significantly reduce
same,stereotypy induced by PCP,C57BL/6 male mice [2]; [8],significantly reduce
same,number of avoidance response,"C57BL/6 male mice [4]; 0.15 mg/kg i.p., tested 20 min later, 30 trials, p<0.001",significantly reduces
